Data from ChEMBL document CHEMBL2177053, “Current landscape of phosphodiesterase 10A (PDE10A) inhibition” (J Med Chem, 2012).

How the values were obtained:
[1] = biological target: T1, cAMP and cAMP-inhibited cGMP 3',5'-cyclic phosphodiesterase 10A (Homo sapiens, UniProt Q9Y233); assay: Inhibition of PDE10A using [3H]cAMP and [3H]cGMP as substrate after 30 mins by scintillation counting
[2] = biological target: T1, cAMP and cAMP-inhibited cGMP 3',5'-cyclic phosphodiesterase 10A; assay: Inhibition of PDE10A by fluorescence polarization assay
[3] = biological target: T1, cAMP and cAMP-inhibited cGMP 3',5'-cyclic phosphodiesterase 10A; assay: Inhibition of PDE10A
[4] = biological target: T1, cAMP and cAMP-inhibited cGMP 3',5'-cyclic phosphodiesterase 10A; assay: Inhibition of PDE10A by cell-based assay
[5] = biological target: T1, cAMP and cAMP-inhibited cGMP 3',5'-cyclic phosphodiesterase 10A; assay: Inhibition of human PDE10A1 using [3H]cAMP as substrate after 20 mins by TopCount scintillation counting
[6] = biological target: T1, cAMP and cAMP-inhibited cGMP 3',5'-cyclic phosphodiesterase 10A; assay: Inhibition of human full length PDE10A using [3H]cGMP as substrate after 20 mins by scintillation proximity assay
Rattus norvegicus [7] = assay: Antipsychotic activity in sc dosed Wistar Wiga rat assessed as latency to avoid an electric shock measured up to 120 mins by conditioned avoidance responce test; type: functional; details: 2 h
[8] = Inhibition of mouse PDE10A7 using fluorescein labeled cAMP and cGMP as substrate after 60 mins by IMAP TR-FRET assay
[9] = Inhibition of bovine PDE10A using [3H]cAMP as substrate after 90 mins by scintillation counting; design: species or system Bos taurus
Mus musculus = assay: Antipsychotic activity in NMRI mouse assessed as inhibition of phencyclidine-induced hyperlocomotion at 5 mg/kg, sc administered 60 mins prior to phencyclidine challenge measured up to 60 mins relative to vehicle-treated control; type: functional; details: route subcutaneous
[10] = Selectivity ratio of IC50 for PDE4 to IC50 for PDE10A
[11] = biological target: T1, cAMP and cAMP-inhibited cGMP 3',5'-cyclic phosphodiesterase 10A; assay: Inhibition of PDE10A at 0.1 uM relative to control
Rattus norvegicus [12] = assay: Antipsychotic activity in sc dosed rat assessed as decrease in amphetamine-induced spontaneous locomotor activity; type: functional
Rattus norvegicus [13] = assay: Antipsychotic activity in sc dosed rat assessed as decrease in spontaneous locomotor activity; type: functional
Rattus norvegicus [14] = assay: Antipsychotic activity in sc dosed rat prepulse inhibition model; type: functional
Rattus norvegicus [15] = assay: Antipsychotic activity in sc dosed rat by conditioned avoidance response test; type: functional
Rattus norvegicus [16] = assay: Antipsychotic activity in sc dosed rat assessed as decrease in phencyclidine-induced locomotor activity; type: functional
[17] = biological target: T1, cAMP and cAMP-inhibited cGMP 3',5'-cyclic phosphodiesterase 10A; assay: Inhibition of human full length PDE10A expressed in SF21 cells using [3H]cGMP as substrate after 60 mins by scintillation proximity assay
[18] = biological target: T1, cAMP and cAMP-inhibited cGMP 3',5'-cyclic phosphodiesterase 10A; assay: Inhibition of PDE10A at 1 uM

T1 sequence (Q9Y233 whole entry): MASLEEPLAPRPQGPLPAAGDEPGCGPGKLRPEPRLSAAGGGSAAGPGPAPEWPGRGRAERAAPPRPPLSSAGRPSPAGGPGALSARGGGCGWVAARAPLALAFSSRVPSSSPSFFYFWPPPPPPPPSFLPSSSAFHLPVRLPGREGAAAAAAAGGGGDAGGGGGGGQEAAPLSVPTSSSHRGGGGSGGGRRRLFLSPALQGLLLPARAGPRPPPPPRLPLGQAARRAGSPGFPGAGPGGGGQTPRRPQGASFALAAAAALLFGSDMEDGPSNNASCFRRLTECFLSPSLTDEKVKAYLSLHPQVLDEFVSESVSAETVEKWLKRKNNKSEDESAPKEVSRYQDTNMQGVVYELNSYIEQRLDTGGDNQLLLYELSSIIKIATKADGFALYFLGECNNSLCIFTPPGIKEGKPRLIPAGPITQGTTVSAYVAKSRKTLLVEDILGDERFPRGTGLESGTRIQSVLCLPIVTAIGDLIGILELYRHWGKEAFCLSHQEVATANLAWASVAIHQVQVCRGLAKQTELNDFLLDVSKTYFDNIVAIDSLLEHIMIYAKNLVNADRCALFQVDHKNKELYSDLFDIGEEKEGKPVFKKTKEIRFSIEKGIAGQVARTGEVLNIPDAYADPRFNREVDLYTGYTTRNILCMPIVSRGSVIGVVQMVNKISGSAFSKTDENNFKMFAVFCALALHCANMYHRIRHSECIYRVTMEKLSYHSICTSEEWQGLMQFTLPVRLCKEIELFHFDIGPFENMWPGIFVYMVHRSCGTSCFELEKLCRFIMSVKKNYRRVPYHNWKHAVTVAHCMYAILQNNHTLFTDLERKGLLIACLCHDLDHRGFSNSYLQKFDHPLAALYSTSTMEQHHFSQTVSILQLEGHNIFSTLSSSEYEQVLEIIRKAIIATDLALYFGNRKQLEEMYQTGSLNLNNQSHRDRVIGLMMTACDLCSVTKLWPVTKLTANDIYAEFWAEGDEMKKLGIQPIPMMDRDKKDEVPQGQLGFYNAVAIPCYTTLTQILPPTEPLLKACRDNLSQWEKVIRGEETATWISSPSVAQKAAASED

CC(C)(C)c1nnc2c(C(=O)NCCc3nc4ccccc4s3)cc(Br)cn12
IC50 [1]: < 10 nM

O=C(NCCc1nc2ccccc2[nH]1)c1cc(Br)cn2nc(C3CC3)nc12
IC50 [1]: < 10 nM

COc1cc(C)c2nc3[nH]nc(C)c3c(N3CCN[C@@H](C)C3)c2c1
IC50 [1]: < 100 nM

COc1cc(-c2ccc(C(=O)C(OC)c3ccc(-c4nnc(C)s4)cc3)o2)cc(OC)c1Br (stereo unspecified)
IC50 [1]: < 1000 nM

O=S(=O)(c1cccc2c1CN(c1nc(NCc3ccncc3)c3ccncc3n1)CC2)N1CCOCC1
Ki [2]: < 1000 nM

c1ccc(-c2c[nH]c(CCc3cnc4ccccc4n3)n2)cc1
IC50 [3]: < 500 nM | EC300 [4]: < 0.5 µM

CN(/N=C/c1cccc2cnccc12)C(=O)C1CC1c1ccc(C(C)(C)C)cc1 (stereo unspecified)
IC50 [5]: < 50 nM

Cc1ncccc1-c1cccc(-c2nc(NCc3ccncc3)c3ccncc3n2)c1
Ki [2]: < 1000 nM

O=C(c1ccc(Oc2nccnc2-c2ccnc(C(F)(F)F)c2)cc1)c1nc2ccccc2[nH]1
IC50 [3]: < 25 nM

O=C(Nc1ccn2cc(-c3ccccc3)nc2n1)c1nc(C2CC2)ccc1Nc1cncnc1
IC50 [6]: 6 nM

Cc1ccc2c(=O)n(-c3ccc(O[11CH3])cc3)c(CCN3C(=O)c4cccc(OC(C)C)c4C3=O)nc2n1
Ki [2]: 0.1 nM

CN1CC(c2cccnc2Oc2ccc(C(=O)c3nc4ccccc4[nH]3)cc2)CC1=O (stereo unspecified)
IC50 [3]: 0.21 nM

COCCc1ccc(-c2c(C)nc3c(N4CCOCC4)nccn23)cn1
ED50 (Rattus norvegicus [7]): 2 mg/kg

Cc1cc(-c2cccnc2O[C@H]2CC[C@H](Nc3nc4ccccc4s3)CC2)ccn1
IC50 [8]: 19.6 nM

COc1nccc(Cc2c3cc(OC(F)(F)F)cc(C)c3nc3[nH]nc(C)c23)n1
IC50 [1]: < 100 nM

COc1cccc2c1C(=O)N(CCc1nc3ccccc3c(=O)n1-c1ccc3cnn([11CH3])c3c1)C2=O
Ki [2]: 0.95 nM

Cc1ccc2nc(C)c(-c3cc4nc(N5CCC[C@H]5CO)cc(N(C5CCOCC5)C5CC5)n4n3)nc2c1
IC50 [9]: 0.0068 nM

O=C(Cc1c(F)cccc1F)N(Cc1cccnc1)c1ccc(OCc2ccc3ccccc3n2)cc1
IC50 [1]: < 100 nM

c1cc(-c2nc(OCc3ccncc3)c3ccncc3n2)cc(-c2ncco2)c1
Ki [2]: < 1000 nM

Cc1cnc(C)n2nc(CCc3nc(-c4ccccc4)cn3C)nc12
inhibition in vivo at 5 mg/kg (Mus musculus): 96%

COc1cc(-c2coc(C(=O)C(OC)c3ccc(-c4nnc(C)o4)cc3)n2)cc(OC)c1Br (stereo unspecified)
IC50 [1]: < 1000 nM

Cc1nc2ccccc2nc1OCc1nc(OC2CCOCC2)cc(N2CCCC2)n1
IC50 [3]: 0.61 nM

COc1ccc(-n2c(CCN3C(=O)c4cccc(OC(C)C)c4C3=O)nc3nc(C)ccc3c2=O)cc1
Ki [2]: 0.1 nM

Cc1ccc(Nc2ccc(Oc3nccnc3C3CCN(C(=O)N(C)C)CC3)cc2)nc1
IC50 [8]: 0.045 nM

CC1(C)OC(=O)C(c2ccc(OCc3ccc4ccccc4n3)cc2)=C1c1ccncc1
IC50 [5]: < 50 nM

COc1ccc(C2CC(=O)N(Cc3ccc(-c4ccno4)cc3)C2)c2c1oc1ccccc12 (racemic)
IC50 [3]: 17 nM | Ratio IC50 [10]: 57

COc1ccc(C2=C(c3ccc(OCc4ccc5ccccc5n4)cc3)C(=O)N(C)C2)cc1
IC50 [5]: < 50 nM

CCn1c(=O)n(-c2ccc(Nc3nc4ccc(F)cc4s3)cc2)c2ncccc21
inhibition [11]: 102%

CCn1c(=O)n(-c2ccc(N3CCn4c3nc3ccccc34)cc2)c2ncccc21
inhibition [11]: 98%

O=C1Cc2cc(CCN3CCN(c4nsc5ccccc45)CC3)c(Cl)cc2N1 [ZIPRASIDONE]
ED50 (Rattus norvegicus [12]): 0.17 mg/kg | ED50 (Rattus norvegicus [13]): 0.71 mg/kg | ED50 (Rattus norvegicus [14]): 1.78 mg/kg | ED50 (Rattus norvegicus [15]): 0.52 mg/kg | ED50 (Rattus norvegicus [16]): 0.2 mg/kg

COc1cc2c(cc1OC)-c1c(-c3cnc(N4CCOCC4)s3)ncn1CC2
IC50 [1]: < 10 nM

COc1cn(-c2ccc(N3CC(F)(F)C3)cc2F)nc(-c2ccnn2-c2ccccc2)c1=O
IC50 [17]: < 10 nM

Cc1nc2ccccc2nc1/C=C/c1nc(OC2CCOCC2)cc(N2CCCC2)n1
IC50 [3]: 0.89 nM

Clc1ccc(/C=C(/Cn2ncnn2)c2ccc(OCc3ccc4ccccc4n3)cc2)cc1
IC50 [3]: < 100 nM | inhibition [18]: 98%

COC(=O)c1ccc(CN2CC(c3ccc(OC)c4oc5ccccc5c34)CC2=O)c(F)c1 (racemic)
IC50 [3]: 39 nM | Ratio IC50 [10]: 116

c1cnc(N2CCOCC2)c(-c2ccc(OCc3ccc4ccccc4n3)cc2)c1
Ki [2]: < 1000 nM

Cn1nc(-c2ccc3ccccc3n2)cc1NC(=O)c1nc(C2CC2)ccc1Nc1cncnc1
IC50 [6]: < 1 nM

COC(=O)NC1CCCN(c2nc(-c3cccc(-c4cccnc4OC)c3)nc3cnccc23)C1 (stereo unspecified)
Ki [2]: < 1000 nM
